Laboratory results reported in article PMC10287695, “Non-covalent inhibitors of thioredoxin glutathione reductase with schistosomicidal activity in vivo” (Nature Communications, 2023).
Values joined by “and” are separate entries in the source; they are usually repeats but may differ in a detail not shown here. Equal values may be shown once.

Target: T1, TGR (Schistosoma mansoni, UniProt Q962Y6)
T1 construct: made in house
T1 sequence (Q962Y6 1-598): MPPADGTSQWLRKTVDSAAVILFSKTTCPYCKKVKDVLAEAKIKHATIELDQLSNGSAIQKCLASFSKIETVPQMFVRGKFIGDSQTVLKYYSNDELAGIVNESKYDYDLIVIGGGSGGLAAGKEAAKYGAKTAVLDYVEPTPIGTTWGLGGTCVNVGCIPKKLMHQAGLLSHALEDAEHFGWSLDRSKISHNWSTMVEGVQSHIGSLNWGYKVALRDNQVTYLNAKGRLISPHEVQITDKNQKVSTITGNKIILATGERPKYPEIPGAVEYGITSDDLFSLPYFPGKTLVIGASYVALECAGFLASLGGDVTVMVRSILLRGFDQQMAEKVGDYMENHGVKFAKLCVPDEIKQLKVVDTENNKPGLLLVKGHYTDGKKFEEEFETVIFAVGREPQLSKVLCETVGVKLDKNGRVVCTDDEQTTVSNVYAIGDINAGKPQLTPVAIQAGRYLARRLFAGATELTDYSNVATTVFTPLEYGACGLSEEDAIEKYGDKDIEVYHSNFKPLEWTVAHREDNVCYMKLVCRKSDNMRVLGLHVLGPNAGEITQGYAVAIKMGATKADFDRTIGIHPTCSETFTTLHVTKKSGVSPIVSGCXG
Assay: Thermal shift assay (TSA)
Type: binding
Set-up: key to Avg. Tm / Tm, replicate 1-3: Tm in °C, from a 25–95 °C melt curve
Details: for Avg. Tm / Tm, replicate 1-3: TGR + 100 µM compound; for Avg. Tm, + 500 µM NADPH / Tm, replicate 1-3, + 500 µM NADPH: TGR + 100 µM compound + 500 µM NADPH; for Tm, replicate 1-3, + 500 µM NADPH / Tm, replicate 1-3: single replicates; for effect on Tm of oxidized TGR: without NADPH; for increase in the Tm of TGR in the presence of NADPH: 500 µM NADPH
Description: Samples were prepared by using a final concentration of 0.25 mg/ml TGR diluted in TGR reaction buffer to the desired volume. To evaluate reduced TGR, 500 µM NADPH was added. […] After the preincubation period, 20 µL samples were pipetted into a BioRad un-skirted PCR 96 well plate and sealed with MicroAmp^TM Optical Adhesive film. The plate was then centrifuged for 5 min at 1000 × g. TSA was carried out using a BioRad CFX Connect qPCR instrument with a melt curve setting of 25 − 95 °C, in increments of 0.5 °C/10 seconds. The SYBR green channel was used to detect fluorescence as the wavelength of flavin fluorescence overlaps with that of SYBR green. BioRad CFX Maestro 5.2 was used to analyze TSA data.

CC1C(NCc2cn(C3OCC(O)C(O)C3O)c3ccccc23)CC2CC1C2(C)C (stereo not shown) [Compound 9]
shift of Tm of reduced TGR (400uM compound): 1.5 °C
shift of Tm of reduced TGR (1mM compound): 3 °C
Avg. Tm: 74.8
Avg. Tm, + 500 µM NADPH: 68
Tm, replicate 1-3, + 500 µM NADPH (in °C (unit assumed)): 67.5 and 68 and 69
Tm, replicate 1-3: 74.5 (2×) and 75
effect on Tm of oxidized TGR: doesn’t shift the Tm

C[C@@H]1[C@H]2C[C@@H](C[C@H]1NCc1cc(-c3ccccc3)[nH]n1)C2(C)C [Compound 11]
increase in the Tm of TGR in the presence of NADPH: no effect
Avg. Tm: 73.5
Avg. Tm, + 500 µM NADPH: 63.67
Tm, replicate 1-3, + 500 µM NADPH: 63.5 (2×) and 64
Tm, replicate 1-3 (in °C (unit assumed)): 73.5
effect on Tm of oxidized TGR: no effect

C[C@@H]1[C@H]2C[C@@H](C[C@H]1NCc1nc3ccccc3n1C)C2(C)C [Compound 12]
increase in the Tm of TGR in the presence of NADPH: no effect
Avg. Tm: 73.5
Avg. Tm, + 500 µM NADPH: 64
Tm, replicate 1-3, + 500 µM NADPH (in °C (unit assumed)): 64
Tm, replicate 1-3 (in °C (unit assumed)): 73.5
effect on Tm of oxidized TGR: no effect
